Results on six molecules are retold here after patent publication US20100144888A1, “PESTICIDAL METHODS AND COMPOSITIONS FOR MODULATING GABA RECEPTORS” (ECOSMART TECHNOLOGIES, INC., priority 2008, published 2010).

In one test the target is T1, House Fly GABA receptor (Musca domestica, UniProt Q75NA5).
T1 sequence (Q75NA5 30-576): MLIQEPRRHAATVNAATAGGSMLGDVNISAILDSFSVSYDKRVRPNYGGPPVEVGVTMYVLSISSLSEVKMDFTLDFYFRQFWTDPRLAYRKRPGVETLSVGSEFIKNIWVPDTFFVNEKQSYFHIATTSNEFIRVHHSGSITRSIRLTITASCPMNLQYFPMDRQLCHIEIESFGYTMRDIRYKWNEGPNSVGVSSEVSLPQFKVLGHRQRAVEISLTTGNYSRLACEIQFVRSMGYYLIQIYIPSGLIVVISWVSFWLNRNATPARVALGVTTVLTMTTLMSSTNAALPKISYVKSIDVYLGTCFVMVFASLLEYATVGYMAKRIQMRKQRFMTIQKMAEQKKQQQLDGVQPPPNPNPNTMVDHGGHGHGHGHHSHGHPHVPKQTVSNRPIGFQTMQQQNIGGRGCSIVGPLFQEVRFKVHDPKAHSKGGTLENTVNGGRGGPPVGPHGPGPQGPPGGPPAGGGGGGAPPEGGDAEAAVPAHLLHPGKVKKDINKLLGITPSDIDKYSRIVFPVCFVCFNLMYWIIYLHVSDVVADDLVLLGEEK
The test can be described thus: [3H]-TBOB binding assay, house fly GABA receptor. The settings on record: for modulation of the house fly GABA receptor: based on [3H]-TBOB-house fly GABA receptor binding assay, FIGS. 1-7; for effect on [3H]-TBOB binding activity: house fly GABA receptor, 4 nM [3H]-TBOB. How it is done:
[^3H]-TBOB Assay. In this study, five monoterpenoids (Pulegone, Thymol, Alpha-terpineol, Linalool and Carvacrol) were investigated to determine their modulation effects on [^3H]TBOB (t-butylbicycloorthobenzoate) binding to housefly GABA (Gamma-aminobutyric acid) receptors.
House fly heads (200) were homogenized in 10 mM tris-HCL buffer (pH 7.5) containing 0.25M sucrose (buffer A) with a glass homogenizer. The homogenate was centrifuged at 1,000×g for 5 minutes. The supernatant was filtered by four layers cheesecloth and centrifuged at 25,000×g for 30 minutes. The supernatant was discarded, and the pellet was homogenized and resuspended in buffer A for 30 minutes. The suspension was centrifuged at 25,000×g for 30 minutes. The final pellet was suspended in 10 mM phosphate buffer (pH 7.5) containing 300 mM NaCL (buffer B) and used directly for the assays.
(§1) 100 μl membrane was incubated for 70 minutes at room temperature with 4 nM [^3H]-TBOB, different amounts of candidate inhibitor and buffer B. The total assay buffer volume was 500 μl. After incubation, samples were filtered by glass fiber filter papers and washed with 5 ml ice-cold buffer B 3 times. Radioactivity was measured by liquid scintillation counter. Specific binding was calculated as the difference between the total ^3H bound and nonspecific ^3H bound with 100 μM picrotoxin.

The subject of test [1] is insect GABA receptor (American cockroach CNS membrane microsacs). Description: GABA-activated 36Cl- uptake assay in membrane microsacs. It is filed as biochemical, Periplaneta americana. The settings on record: for modulation of Cl- uptake: American cockroach membrane microsacs, 1 μM GABA, FIGS. 8-15; for type of modulation of the insect GABA receptor: conclusion from 36Cl- uptake results. How it is done: Cockroach CNS Membrane Microsacs Preparation: Thoracic and abdominal ganglia were removed from 30 American cockroaches and homogenized in 8.0 ml ice-cold buffer of the following composition (in millimoles per liter): NaBr, 145; KBr, 5.0; MgSO4, 1.0; Ca(NO3)2, 1.0; D-glucose, 10.0; N-2-hydroxyethylpiperazine-N′-2-ethanesulphonic acid (HEPES), 10.0 (adjusted to pH 7.5). The homogenate was centrifuged in 1.0 ml aliquots at 10,000×g for 20 min, and the pellets were re-suspended in buffer, re-centrifuged and finally re-suspended in buffer for assaying GABA-activated ^36Cl— uptake.
Cockroach GABA-activated ^36Cl— Uptake: Aliquots (200 μl) of this microsac preparation were incubated at 30° C. for 3 min after which 150 μl of a solution of ^36Cl— (0.2 μCi ml-l; specific activity 580 μCi mmol^−1) containing 1 μM GABA was added. Candidate monoterpenoids were incubated with the tissue sample for 3 min before addition of the solution containing ^36Cl— and GABA. To stop the influx of 36CL—, 2.0 m1 of ice cold buffer was added (after 10 s) and the solution was rapidly filtered over a glass-fiber filter (Whatman GF/C) followed by a 10-ml wash with ice-cold buffer. Filters, which then contained the microsacs, are placed into scintillation vials, and the scintillation cocktail was added. The vials were counted in the liquid scintillation counter, and the amount of ^36Cl— taken up into the microsacs was measured and calculated on the molar basis.

The next test concerns the target Mouse GABAa receptor. Description: [3H]-TBOB binding assay, mouse GABAa receptor. The note with it: means±S.D., n=3, FIG. 1, read-out: IC50, inhibition of [3H]-TBOB binding. Here is the method: as §1

Consider `CC1=CCC(C(C)(C)O)CC1` (stereo not drawn) [alpha-terpineol], for which, at House Fly GABA receptor, the “modulation of the house fly GABA receptor” value is given as “modulated the house fly GABA receptor” and the “effect on [3H]-TBOB binding activity” value is “lesser effects”.
Regarding `Cc1ccc(C(C)C)c(O)c1` [thymol], at House Fly GABA receptor, the “modulation of the house fly GABA receptor” value is “modulated the house fly GABA receptor” and the “effect on [3H]-TBOB binding activity” value is reported as “potentiated the binding”. Moreover, in test [1], the “modulation of Cl- uptake” value was “modulate Cl— uptake” and the “type of modulation of the insect GABA receptor” value is “positive modulators”.
Consider `C=CC(C)(O)CCC=C(C)C` (stereo not shown) [linalool], for which, on House Fly GABA receptor, the “modulation of the house fly GABA receptor” value is on record as “modulated the house fly GABA receptor” and the “effect on [3H]-TBOB binding activity” value is “potentiated the binding”.
Turning to `CC(C)=C1CC[C@@H](C)CC1=O` [Pulegone], on House Fly GABA receptor, the “modulation of the house fly GABA receptor” value is given as “modulated the house fly GABA receptor” and the “effect on [3H]-TBOB binding activity” value is reported as “potentiated the binding”. In addition, the “modulation of Cl- uptake” value in test [1] is “modulate Cl— uptake”.
Turning to `ClC1=C(Cl)[C@]2(Cl)[C@@H]3[C@@H]4C[C@@H]([C@H]5O[C@@H]45)[C@@H]3[C@@]1(Cl)C2(Cl)Cl` [Dieldrin], at Mouse GABAa receptor, the half-maximal inhibitory concentration (IC50) is 3.78 ± 0.45 µM.
As for `Cc1ccc(C(C)C)cc1O` [carvacrol], at House Fly GABA receptor, the “modulation of the house fly GABA receptor” value was “modulated the house fly GABA receptor” and the “effect on [3H]-TBOB binding activity” value is recorded as “potentiated the binding”. Besides, in test [1], the “modulation of Cl- uptake” value is “modulate Cl— uptake” and the “type of modulation of the insect GABA receptor” value was “positive modulators”.

The term IC50 denotes the midpoint of a concentration-inhibition curve.
